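The compound was tested at five concentrations on cells cultured in 96-well plates, with a 48-hour exposure period. The concentration for 50% growth inhibition is given as GI50.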 Activity calls are given as the source filed them. Cut-off read from the data, not from the text of the source: active = GI50 up to about 1.1 µM and inactive = higher.
Tests used:
Test in all cases: NCI-60 cell line screen, 48 h
UO-31 = tested on: UO-31
ACHN = tested on: ACHN
SK-MEL-2 = tested on: SK-MEL-2
RPMI-8226 = tested on: RPMI-8226
SK-MEL-28 = tested on: SK-MEL-28
786-0 = tested on: 786-0
Malme-3M = tested on: Malme-3M
NCI-H226 = tested on: NCI-H226
LOX IMVI = tested on: LOX IMVI
A498 = tested on: A498
SNB-19 = tested on: SNB-19
COLO 205 = tested on: COLO 205
MDA-MB-435 = tested on: MDA-MB-435
SW-620 = tested on: SW-620
A549 = tested on: A549
CAKI-1 = tested on: CAKI-1
TK-10 = tested on: TK-10
SN12C = tested on: SN12C
Hs-578T = tested on: Hs-578T
HOP-18 = tested on: HOP-18

Measured: GI50

CC(=O)C(C(C)=O)[C@@H]1OC(C)(C)O[C@@H]1[C@H]1COC(C)(C)O1
inactive: UO-31 55.2 µM | ACHN > 100 µM | SK-MEL-2 28.5 µM | RPMI-8226 34.7 µM | SK-MEL-28 60.3 µM | 786-0 32.1 µM | Malme-3M 22.5 µM | NCI-H226 > 100 µM | LOX IMVI 87.1 µM | A498 93.3 µM | SNB-19 64.1 µM | COLO 205 43.5 µM | MDA-MB-435 38.7 µM | SW-620 36.6 µM | A549 > 100 µM | CAKI-1 53.2 µM | TK-10 > 100 µM | SN12C 20.8 µM | Hs-578T 28.4 µM

COc1ccc([N+](=O)[O-])c2c(NCCCN(C)C)ccnc12
inactive: UO-31 4.39 µM | ACHN 2.86 µM | SK-MEL-2 2.05 µM | RPMI-8226 1.65 µM | SK-MEL-28 > 63.4 µM | 786-0 8.36 µM | Malme-3M 2.43 µM | NCI-H226 7.31 µM | LOX IMVI 6.71 µM | A498 2.33 µM | SNB-19 8.3 µM | COLO 205 2.39 µM | MDA-MB-435 9.1 µM | SW-620 4.7 µM | A549 3.37 µM | CAKI-1 8.39 µM | TK-10 10.2 µM | SN12C 7.29 µM | Hs-578T 6.35 µM

COc1cc(/C=C2\C[C@H]3[C@@H]4CC=C5C[C@@H](N6CCCC6)CC[C@]5(C)[C@H]4CC[C@]3(C)[C@H]2O)cc(OC)c1OC
inactive: UO-31 2.8 µM | ACHN 15.8 µM | SK-MEL-2 19.5 µM | RPMI-8226 6.4 µM | SK-MEL-28 17.4 µM | 786-0 4.11 µM | Malme-3M 11.7 µM | NCI-H226 21.2 µM | LOX IMVI 8.57 µM | A498 16.6 µM | SNB-19 18.8 µM | COLO 205 14.8 µM | MDA-MB-435 4.45 µM | SW-620 8.04 µM | A549 10.6 µM | CAKI-1 15.5 µM | TK-10 20.3 µM | SN12C 13.2 µM | Hs-578T 6.11 µM

O=c1c2c(no[n+]2[O-])c2ccccc2n1-c1ccccc1
inactive: UO-31 11.9 µM | ACHN 11.4 µM | SK-MEL-2 11.8 µM | RPMI-8226 5.87 µM | SK-MEL-28 5.46 µM | 786-0 2.89 µM | Malme-3M 5.7 µM | NCI-H226 9.93 µM | LOX IMVI 1.69 µM | A498 15.6 µM | SNB-19 14.5 µM | COLO 205 12.2 µM | MDA-MB-435 5.43 µM | SW-620 2.65 µM | A549 17.9 µM | CAKI-1 2.65 µM | TK-10 17.3 µM | SN12C 6.01 µM | Hs-578T 18.6 µM

CCOC(=O)C(=Cc1cccnc1C)C(=O)OCC
inactive: UO-31 5.16 µM | ACHN 11.9 µM | SK-MEL-2 4.08 µM | SK-MEL-28 17.5 µM | 786-0 8.51 µM | Malme-3M 12.2 µM | NCI-H226 31.8 µM | LOX IMVI 3.71 µM | A498 10.9 µM | SNB-19 11.3 µM | COLO 205 5.6 µM | SW-620 5.32 µM | A549 15.6 µM | CAKI-1 6.21 µM | TK-10 12.9 µM | SN12C 4.43 µM | HOP-18 9.68 µM

Cc1c2cccc-2ccc2c1[nH]c1ccccc12
inactive: UO-31 1.63 µM | ACHN 1.77 µM | SK-MEL-2 1.8 µM | RPMI-8226 2.43 µM | SK-MEL-28 1.75 µM | 786-0 2.81 µM | Malme-3M 1.89 µM | NCI-H226 1.97 µM | LOX IMVI 2.55 µM | A498 13.6 µM | SNB-19 2.7 µM | COLO 205 1.89 µM | MDA-MB-435 2.27 µM | SW-620 2.36 µM | A549 2.22 µM | CAKI-1 6.31 µM | TK-10 2.32 µM | SN12C 2.34 µM | Hs-578T 2.34 µM

ClCCCCOC1CCCCO1 (stereo not drawn)
inactive: UO-31 > 100 µM | ACHN > 100 µM | SK-MEL-2 > 100 µM | SK-MEL-28 > 100 µM | 786-0 > 100 µM | Malme-3M > 100 µM | NCI-H226 > 100 µM | A498 > 100 µM | SNB-19 > 100 µM | COLO 205 > 100 µM | SW-620 > 100 µM | A549 > 100 µM | CAKI-1 > 100 µM | TK-10 > 100 µM | SN12C > 100 µM | HOP-18 > 100 µM
